Molecular target: T1, mineralo-corticoid receptor of the rat kidney (Rattus norvegicus, UniProt P22199)
T1 construct: The kidneys were then removed, decapsulated and homogenized at 0° C; from tissue; host or cells: kidney of adrenalectomized male Sprague-Dawley EOPS rats, 105,000 g supernatant (cytosol)
T1 sequence (P22199 1-981): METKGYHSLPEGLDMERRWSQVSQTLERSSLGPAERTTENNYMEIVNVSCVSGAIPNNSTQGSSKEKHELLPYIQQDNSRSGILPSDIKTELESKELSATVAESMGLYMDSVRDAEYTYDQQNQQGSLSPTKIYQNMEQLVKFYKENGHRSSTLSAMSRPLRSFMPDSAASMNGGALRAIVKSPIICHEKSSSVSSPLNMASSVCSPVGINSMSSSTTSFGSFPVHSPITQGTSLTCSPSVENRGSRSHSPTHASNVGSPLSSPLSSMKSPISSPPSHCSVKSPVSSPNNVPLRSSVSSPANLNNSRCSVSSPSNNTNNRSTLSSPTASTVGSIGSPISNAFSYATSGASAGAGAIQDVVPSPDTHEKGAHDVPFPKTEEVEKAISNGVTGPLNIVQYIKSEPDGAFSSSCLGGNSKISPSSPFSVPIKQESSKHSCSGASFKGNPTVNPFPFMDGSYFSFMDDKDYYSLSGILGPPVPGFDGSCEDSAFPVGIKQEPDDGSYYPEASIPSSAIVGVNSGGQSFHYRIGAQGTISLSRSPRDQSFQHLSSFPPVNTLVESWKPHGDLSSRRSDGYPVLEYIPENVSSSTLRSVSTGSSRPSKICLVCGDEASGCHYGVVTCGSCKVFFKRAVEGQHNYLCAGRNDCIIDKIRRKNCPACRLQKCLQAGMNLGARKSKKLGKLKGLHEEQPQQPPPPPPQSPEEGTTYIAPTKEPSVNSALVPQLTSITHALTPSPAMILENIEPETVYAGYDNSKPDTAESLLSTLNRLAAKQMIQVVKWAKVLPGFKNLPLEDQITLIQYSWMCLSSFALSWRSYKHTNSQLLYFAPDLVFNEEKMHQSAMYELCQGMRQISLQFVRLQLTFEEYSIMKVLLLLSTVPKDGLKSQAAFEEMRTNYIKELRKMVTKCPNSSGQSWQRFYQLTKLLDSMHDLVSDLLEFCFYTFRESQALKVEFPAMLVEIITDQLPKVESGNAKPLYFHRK
Test: Anti-aldosterone activity: displacement of tritiated aldosterone from the mineralo-corticoid receptor of the rat kidney (relative liaison affinity)
Type: binding
Conditions: vs cold aldosterone as reference hormone, rat kidney cytosol
Protocol: Study of the anti-aldosterone activity of the mineralo-corticoid receptor of the rat kidney
Male Sprague-Dawley EOPS rats weighing 140 to 160 g, suprarenalectomized 4 to 6 days earlier, were killed and their kidneys were perfused in situ with 50 ml of Tris 10 mM-saccharose 0.25M buffer, HCl pH 7.4. The kidneys were then removed, decapsulated and homogenized at 0° C. with a Potter polytetrafluoroethylene glass (1 g of tissue for 3 ml of buffer). The homogenate was centrifuged for 10 minutes at 800 g at 0° C. To eliminate the fixation of the tritiated aldosterone on the glucocorticoid receptor, 11β,17β-dihydroxy-17α-(1-propynyl)-Δ^1,4,6 -androstatrien-3-one which fixes uniquely on the glucocorticoid receptor was added to the supernatant at a final concentration of 10^-6 M. This supernatant was ultracentrifuged at 105,000 g for 60 minutes at 0° C. and aliquots of the supernatant were incubated at 0° C. with a constant concentration (T) of tritiated aldosterone in the presence of increasing concentrations (0-2500×10^-9 M) of cold aldosterone or of the cold product under study. After an incubation time (t), the concentration of tritiated aldosterone bound (B) was measured by the technique of adsorption on charcoal-dextran.
The calculation of the relative liaison affinity (RLA) was carried out as follows: The two following curves were drawn: the percentage of tritiated hormone bonded B/T as a function of the logarithm of the concentration of the cold reference hormone, and B/T as a function of the logarithm of the concentration of the cold product under test. The straight line of the equation I50 =(B/T max+B/T min)/2 was determine B/T max=percentage of the tritiated hormone bonded for an incubation of this triated hormone at the concentration (T), B/T min=percentage of the tritiated hormone bonded for an incubation of this tritiated hormone at the concentration (T) in the presence of a great excess of cold hormone (2500.10^-9 M). The intersections of the straight line I50 and the curves enabled the concentrations of the cold reference hormone (CH) and of the cold product tested (CX) to be evaluated which inhibited by 50% the bonding of the tritiated hormone on the receptor. The relative liaison affinity (RAL) of the product tested is determined by the equation: [formula] The following results were obtained;

[1] = incubation time at 0° C.: 1 hour
[2] = incubation time at 0° C.: 24 hours

SMILES	relative liaison affinity (RLA) [1]	relative liaison affinity (RLA) [2]
CC#C[C@]12CCC(=O)C=C1CC[C@@H]1[C@@H]2CC[C@@]2(C)[C@H]1CC[C@@]21CCC(=O)O1 [Example 3, γ-lactone of 17β-hydroxy-3-oxo-10β-(1-propynyl)-19-nor-17α-Δ^4-pregnene-21-carboxylic acid]	50	43
C#C[C@]12CCC(=O)C=C1CC[C@@H]1[C@@H]2CC[C@@]2(C)[C@H]1CC[C@@]21CCC(=O)O1 [Example 1, Gamma-lactone of 10β-ethynyl-17β-hydroxy-3-oxo-19-nor-17α-Δ^4-pregnen 21-carboxylic acid]	125	65

— patent US4987128A, “Novel 10β-alkynyl-steroids” (Roussel Uclaf, priority 1986, dated 1991)
